Test results as given in patent US8415469B2, “Compounds and methods for kinase modulation, and indications therefor” (Plexxikon Inc., priority 2005, dated 2013).

How the values were obtained:
Format in all cases: biochemical
B-Raf V600E = molecular target: T1, B-Raf V600E (Homo sapiens, UniProt P15056, V600E); assay: AlphaScreen kinase assay, B-Raf V600E; conditions: read-out: IC50, activity toward kinase B-Raf V600E
T1 construct: P4254. pFastBacBD-CDC37 BRAF D437-K722-X, V600E; His6 with pFastBac HT leader (TEV site) (N); made in house; host or cells: Sf9 (baculovirus; chaperone CDC37 co-expressed)
T1 sequence (P15056 with tags, fused parts or gaps V600E): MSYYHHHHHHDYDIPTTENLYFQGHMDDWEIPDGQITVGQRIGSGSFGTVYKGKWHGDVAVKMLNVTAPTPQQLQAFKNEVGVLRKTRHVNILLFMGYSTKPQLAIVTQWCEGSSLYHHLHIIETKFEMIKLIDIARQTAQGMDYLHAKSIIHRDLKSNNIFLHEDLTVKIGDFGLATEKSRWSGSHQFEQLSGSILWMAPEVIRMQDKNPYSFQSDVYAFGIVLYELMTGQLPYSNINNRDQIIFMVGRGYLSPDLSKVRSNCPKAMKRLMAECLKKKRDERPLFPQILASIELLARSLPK

Flt1 = molecular target: T2, Flt1 (Homo sapiens, UniProt P17948); assay: AlphaScreen kinase assay, Flt1; conditions: read-out: IC50, activity toward kinase Flt1
T2 construct: P1826.pETN6 BI-PTP FLT1 M799-D1165-X WT; His6 (N); made in house; host or cells: E. coli (PTP1B co-expressed)
T2 sequence (P17948 with tags, fused parts or gaps): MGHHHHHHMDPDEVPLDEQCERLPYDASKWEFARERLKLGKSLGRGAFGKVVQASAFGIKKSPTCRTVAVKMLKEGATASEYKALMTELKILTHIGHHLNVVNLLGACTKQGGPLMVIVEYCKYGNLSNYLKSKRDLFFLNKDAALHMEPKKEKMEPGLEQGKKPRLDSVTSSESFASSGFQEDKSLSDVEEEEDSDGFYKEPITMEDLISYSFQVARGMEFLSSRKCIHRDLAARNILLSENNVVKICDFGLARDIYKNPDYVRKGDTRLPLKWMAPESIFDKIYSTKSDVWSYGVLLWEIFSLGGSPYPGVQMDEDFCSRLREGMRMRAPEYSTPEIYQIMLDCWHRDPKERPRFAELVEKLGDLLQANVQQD

Src = molecular target: T3, Src (Homo sapiens, UniProt P12931); assay: AlphaScreen kinase assay, Src; conditions: read-out: IC50, activity toward kinase Src
T3 construct: P1144. pET-N6 BI-PTP SRC V86-L536-X; made in house
Excerpt: AlphaScreen assay was used to screen additional kinases. The assay is similarly dependent on the phosphorylation of a peptide substrate. In this assay, an antibody that recognizes phosphorylated substrate is bound to an acceptor bead. The peptide substrate is attached to biotin, which binds to a donor head that contains streptavidin. Thus phosphorylated substrate is bound by antibody and streptavidin, bringing the donor and acceptor heads into close proximity when kinase is not inhibited. The donor produces singlet oxygen which results in emission from the acceptor when they are in close proximity. Conversely, when kinase is inhibited, the donor and acceptor beads are not associated and the emission from the acceptor is reduced.
AlphaScreen assays were done using compounds dissolved in DMSO to a concentration of 20 mM. The compounds were diluted accordingly to the desired final concentrations in each sample well, using 1:3 serial dilution for a total of 8 concentration points. Plates were prepared such that each kinase reaction is 20 μl in 1× kinase buffer, 5% DMSO and 10 μM ATP. After incubation of the kinase reaction for 1 hour at room temperature, 5 μl of donor beads in stop buffer (50 mM EDTA in 1× kinase buffer) was added, the sample was mixed and incubated for 20 minutes at room temperature before adding 5 μl of acceptor beads in stop buffer. The samples were incubated for 60 minutes at room temperature and the signal per well was read on AlphaQuest reader.

Kit = molecular target: T4, Kit (Homo sapiens, UniProt P10721); assay: AlphaScreen kinase assay, Kit; conditions: read-out: IC50, activity toward kinase Kit
T4 construct: P1332.N6 BI PTP KIT M552-K948-X COD; His6 (N); made in house; host or cells: E. coli (PTP1B co-expressed)
T4 sequence (P10721 with tags, fused parts or gaps): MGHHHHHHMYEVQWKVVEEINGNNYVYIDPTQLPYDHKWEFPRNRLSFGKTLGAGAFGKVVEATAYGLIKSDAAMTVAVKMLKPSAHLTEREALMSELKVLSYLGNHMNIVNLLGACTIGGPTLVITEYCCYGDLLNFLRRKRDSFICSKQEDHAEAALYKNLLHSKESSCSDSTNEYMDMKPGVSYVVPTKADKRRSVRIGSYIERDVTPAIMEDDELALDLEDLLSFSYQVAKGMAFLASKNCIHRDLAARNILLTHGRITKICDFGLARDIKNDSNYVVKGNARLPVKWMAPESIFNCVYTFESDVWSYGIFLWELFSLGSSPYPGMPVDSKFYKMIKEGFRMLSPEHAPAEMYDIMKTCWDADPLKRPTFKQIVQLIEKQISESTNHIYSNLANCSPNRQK

MAP4K4 = MAP4K4 (Homo sapiens, UniProt O95819); assay: AlphaScreen kinase assay, MAP4K4; conditions: read-out: IC50, activity toward kinase MAP4K4
MAP4K4, sequence (O95819 whole entry): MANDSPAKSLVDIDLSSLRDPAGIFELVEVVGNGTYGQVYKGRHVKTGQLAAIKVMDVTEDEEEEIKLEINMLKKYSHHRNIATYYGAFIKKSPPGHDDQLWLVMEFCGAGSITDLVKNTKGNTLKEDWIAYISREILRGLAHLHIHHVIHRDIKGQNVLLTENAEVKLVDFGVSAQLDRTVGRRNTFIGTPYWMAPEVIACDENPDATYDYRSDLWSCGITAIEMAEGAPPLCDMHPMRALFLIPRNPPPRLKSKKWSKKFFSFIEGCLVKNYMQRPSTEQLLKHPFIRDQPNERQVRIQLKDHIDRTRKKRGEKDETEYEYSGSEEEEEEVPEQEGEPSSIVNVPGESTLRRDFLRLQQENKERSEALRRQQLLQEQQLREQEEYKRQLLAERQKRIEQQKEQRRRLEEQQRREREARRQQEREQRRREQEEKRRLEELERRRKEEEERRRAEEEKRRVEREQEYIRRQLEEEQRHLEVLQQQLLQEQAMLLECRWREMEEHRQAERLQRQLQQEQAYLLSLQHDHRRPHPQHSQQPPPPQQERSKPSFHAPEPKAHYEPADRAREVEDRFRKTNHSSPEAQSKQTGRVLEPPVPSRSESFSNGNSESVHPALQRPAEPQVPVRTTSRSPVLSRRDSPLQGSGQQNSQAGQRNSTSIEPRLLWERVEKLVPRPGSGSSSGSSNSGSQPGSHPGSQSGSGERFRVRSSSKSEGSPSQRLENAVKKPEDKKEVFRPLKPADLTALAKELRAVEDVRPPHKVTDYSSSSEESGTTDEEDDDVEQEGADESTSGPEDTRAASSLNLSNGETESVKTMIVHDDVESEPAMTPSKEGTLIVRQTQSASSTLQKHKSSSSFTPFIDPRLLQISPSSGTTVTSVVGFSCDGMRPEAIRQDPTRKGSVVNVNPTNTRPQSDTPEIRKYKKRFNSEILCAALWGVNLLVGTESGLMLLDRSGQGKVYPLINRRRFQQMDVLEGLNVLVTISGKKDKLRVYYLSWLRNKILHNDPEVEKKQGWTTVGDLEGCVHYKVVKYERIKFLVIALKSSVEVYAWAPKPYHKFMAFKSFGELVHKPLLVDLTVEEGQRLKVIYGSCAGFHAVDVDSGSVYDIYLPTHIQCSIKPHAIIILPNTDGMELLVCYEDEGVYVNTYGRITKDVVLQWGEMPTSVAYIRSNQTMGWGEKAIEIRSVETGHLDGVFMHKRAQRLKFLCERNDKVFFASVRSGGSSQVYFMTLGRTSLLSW

FGFR1 = molecular target: T5, FGFR1 (Homo sapiens, UniProt P11362, C488A/C584S); assay: AlphaScreen kinase assay, FGFR1; conditions: read-out: IC50, activity toward kinase FGFR
T5 construct: P1351.pET N6 BI-PTP FGFR A458-E765-X C488A, C584S; made in house; host or cells: E. coli (PTP1B co-expressed)
T5 sequence (P11362 458-765 C488A/C584S): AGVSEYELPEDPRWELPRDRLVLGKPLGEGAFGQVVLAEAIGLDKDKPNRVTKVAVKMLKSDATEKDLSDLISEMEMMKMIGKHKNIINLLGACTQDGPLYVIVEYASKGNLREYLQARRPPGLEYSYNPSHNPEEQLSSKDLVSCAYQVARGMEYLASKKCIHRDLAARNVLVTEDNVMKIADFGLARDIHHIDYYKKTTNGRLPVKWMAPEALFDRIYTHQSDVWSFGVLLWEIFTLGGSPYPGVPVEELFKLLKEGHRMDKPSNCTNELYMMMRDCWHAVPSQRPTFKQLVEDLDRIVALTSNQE

c-Raf-1 = molecular target: T6, c-Raf-1 (Homo sapiens, UniProt P04049); assay: AlphaScreen kinase assay, c-Raf-1; conditions: read-out: IC50, activity toward kinase c-Raf-1
T6 construct: purchased Upstate Biotechnology
T6 sequence (P04049 whole entry): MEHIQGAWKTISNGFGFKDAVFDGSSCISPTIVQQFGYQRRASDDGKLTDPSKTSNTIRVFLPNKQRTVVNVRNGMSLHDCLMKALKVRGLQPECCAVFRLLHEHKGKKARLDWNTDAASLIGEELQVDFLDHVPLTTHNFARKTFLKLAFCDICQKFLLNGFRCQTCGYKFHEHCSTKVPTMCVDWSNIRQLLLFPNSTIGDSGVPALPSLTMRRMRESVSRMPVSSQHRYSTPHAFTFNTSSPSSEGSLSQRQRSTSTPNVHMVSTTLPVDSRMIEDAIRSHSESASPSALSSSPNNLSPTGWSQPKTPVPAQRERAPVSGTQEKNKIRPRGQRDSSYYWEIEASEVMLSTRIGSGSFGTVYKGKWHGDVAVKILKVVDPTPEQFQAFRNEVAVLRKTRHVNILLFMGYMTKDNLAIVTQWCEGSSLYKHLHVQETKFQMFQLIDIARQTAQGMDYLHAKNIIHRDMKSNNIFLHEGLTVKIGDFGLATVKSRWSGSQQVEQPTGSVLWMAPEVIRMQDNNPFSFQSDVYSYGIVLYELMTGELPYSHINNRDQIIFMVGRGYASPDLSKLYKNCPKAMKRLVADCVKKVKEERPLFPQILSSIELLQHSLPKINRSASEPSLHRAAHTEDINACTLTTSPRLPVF

B-Raf = molecular target: T7, B-Raf (Homo sapiens, UniProt P15056); assay: AlphaScreen kinase assay, B-Raf; conditions: read-out: IC50, activity toward kinase B-Raf
T7 construct: purchased Upstate Biotechnology
T7 sequence (P15056 whole entry): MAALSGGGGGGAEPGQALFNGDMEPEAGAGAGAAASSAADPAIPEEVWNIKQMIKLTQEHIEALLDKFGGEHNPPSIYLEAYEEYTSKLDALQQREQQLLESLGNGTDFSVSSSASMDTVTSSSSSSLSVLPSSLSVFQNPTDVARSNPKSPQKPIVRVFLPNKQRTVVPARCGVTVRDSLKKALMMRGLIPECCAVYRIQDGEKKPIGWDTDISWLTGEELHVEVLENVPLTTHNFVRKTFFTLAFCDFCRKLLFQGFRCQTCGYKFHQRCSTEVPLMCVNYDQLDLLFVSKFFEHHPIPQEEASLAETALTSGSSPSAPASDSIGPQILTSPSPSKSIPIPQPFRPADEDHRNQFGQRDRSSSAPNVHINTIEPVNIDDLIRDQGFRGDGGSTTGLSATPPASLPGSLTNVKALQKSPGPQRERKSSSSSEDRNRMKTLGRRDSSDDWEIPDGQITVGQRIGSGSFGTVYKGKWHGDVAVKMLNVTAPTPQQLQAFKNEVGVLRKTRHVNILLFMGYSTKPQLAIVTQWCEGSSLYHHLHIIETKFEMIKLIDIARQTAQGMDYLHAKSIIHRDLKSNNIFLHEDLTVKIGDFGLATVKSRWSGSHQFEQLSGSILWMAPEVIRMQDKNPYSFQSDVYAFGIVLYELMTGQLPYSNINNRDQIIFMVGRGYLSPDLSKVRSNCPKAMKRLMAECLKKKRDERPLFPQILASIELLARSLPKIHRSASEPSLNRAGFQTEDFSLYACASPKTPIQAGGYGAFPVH

Jnk1 = molecular target: T8, Jnk1 (Homo sapiens, UniProt P45983); assay: AlphaScreen kinase assay, Jnk1; conditions: read-out: IC50, activity toward kinase Jnk1
T8 construct: purchased Upstate Biotechnology
T8 sequence (P45983 whole entry): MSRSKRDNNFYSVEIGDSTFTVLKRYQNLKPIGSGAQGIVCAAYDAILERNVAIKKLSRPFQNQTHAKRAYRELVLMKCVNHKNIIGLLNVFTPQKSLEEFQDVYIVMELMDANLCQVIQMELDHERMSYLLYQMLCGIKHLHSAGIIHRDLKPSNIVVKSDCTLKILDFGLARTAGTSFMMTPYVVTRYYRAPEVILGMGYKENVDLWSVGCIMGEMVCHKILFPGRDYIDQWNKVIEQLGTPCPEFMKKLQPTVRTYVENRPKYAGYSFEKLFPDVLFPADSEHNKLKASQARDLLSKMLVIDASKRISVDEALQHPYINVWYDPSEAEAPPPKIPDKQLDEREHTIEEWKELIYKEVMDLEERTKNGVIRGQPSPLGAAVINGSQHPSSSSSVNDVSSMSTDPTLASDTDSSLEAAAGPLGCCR

Fms = molecular target: T9, Fms (Homo sapiens, UniProt P07333); assay: AlphaScreen kinase assay, Fms; conditions: read-out: IC50, activity toward kinase Fms
T9 construct: purchased Upstate Biotechnology
T9 sequence (P07333 20-972): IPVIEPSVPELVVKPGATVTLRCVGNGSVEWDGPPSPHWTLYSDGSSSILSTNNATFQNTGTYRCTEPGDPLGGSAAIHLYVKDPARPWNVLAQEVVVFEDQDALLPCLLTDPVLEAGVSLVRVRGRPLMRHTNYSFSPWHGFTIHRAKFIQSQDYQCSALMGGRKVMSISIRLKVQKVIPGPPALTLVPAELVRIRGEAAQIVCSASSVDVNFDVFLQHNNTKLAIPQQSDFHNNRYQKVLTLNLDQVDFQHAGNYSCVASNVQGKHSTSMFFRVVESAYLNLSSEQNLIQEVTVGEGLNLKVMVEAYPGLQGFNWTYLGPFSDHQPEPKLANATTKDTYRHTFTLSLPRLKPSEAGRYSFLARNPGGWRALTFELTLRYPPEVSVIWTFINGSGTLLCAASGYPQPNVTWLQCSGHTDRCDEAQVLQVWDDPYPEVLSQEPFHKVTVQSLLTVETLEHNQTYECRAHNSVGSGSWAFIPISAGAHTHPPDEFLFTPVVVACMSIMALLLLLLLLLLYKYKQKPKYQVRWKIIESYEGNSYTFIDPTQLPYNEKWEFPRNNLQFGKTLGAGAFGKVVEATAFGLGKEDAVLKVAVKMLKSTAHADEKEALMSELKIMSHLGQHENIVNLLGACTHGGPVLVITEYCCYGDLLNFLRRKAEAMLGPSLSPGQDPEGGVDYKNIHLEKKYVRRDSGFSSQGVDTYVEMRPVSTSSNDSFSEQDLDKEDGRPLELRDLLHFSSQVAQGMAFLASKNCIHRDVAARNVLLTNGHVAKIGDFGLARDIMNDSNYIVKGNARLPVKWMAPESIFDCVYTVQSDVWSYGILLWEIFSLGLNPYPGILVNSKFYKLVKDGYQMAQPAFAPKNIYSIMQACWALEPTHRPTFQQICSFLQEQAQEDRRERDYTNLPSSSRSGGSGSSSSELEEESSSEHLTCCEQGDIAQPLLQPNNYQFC

Measured: IC50

O=C(O)/C=C/c1cccc(-c2cnc3[nH]cc(C(=O)c4cccc(OC(F)(F)F)c4)c3c2)c1 [Compound P-1417, (E)-3-{3-[3-(3-Trifluoromethoxy-benzoyl)-1H-pyrrolo[2,3-b]pyridin-5-yl]-phenyl}-acrylic acid]
≤ 10 µM: B-Raf V600E | Flt1 | Src | Kit | MAP4K4

CCCS(=O)(=O)Nc1ccc(F)c(C(=O)c2c[nH]c3ncc(N4CCOCC4)cc23)c1F [Compound P-0853, Propane-1-sulfonic acid [2,4-difluoro-3-(5-morpholin-4-yl-1H-pyrrolo[2,3-b]pyridine-3-carbonyl)-phenyl]-amide]
not listed: Flt1
≤ 10 µM: all other assays above

O=C(O)c1ccc(F)c(C(=O)c2c[nH]c3ncc(-c4cccnc4)cc23)c1F [Compound P-1017]
≤ 10 µM: FGFR1 | c-Raf-1 | MAP4K4

COc1cccc(S(=O)(=O)Nc2ccc(F)c(C(=O)c3c[nH]c4ncccc34)c2F)c1 [Compound P-0971, N-[2,4-difluoro-3-(1H-pyrrolo[2,3-b]pyridine-3-carbonyl)phenyl]-3-methoxy-benzenesulfonamide]
≤ 10 µM: B-Raf V600E | c-Raf-1 | MAP4K4

COc1cc(Nc2ccnc3[nH]ccc23)cc(OC)c1OC [Compound P-0909]
≤ 10 µM: c-Raf-1 | MAP4K4 | B-Raf

O=C(c1c(F)ccc(NS(=O)(=O)c2ccc(C(F)(F)F)cc2)c1F)c1c[nH]c2ncccc12 [Compound P-0931, N-[2,4-Difluoro-3-(1H-pyrrolo[2,3-b]pyridine-3-carbonyl)-phenyl]-4-trifluoromethyl-benzenesulfonamide]
≤ 10 µM: B-Raf V600E | c-Raf-1 | Kit | MAP4K4 | B-Raf | Fms

O=C(c1cccc(OC(F)F)c1)c1c[nH]c2ncc(-c3cccnc3)cc12 [Compound P-1415, (3-Difluoromethoxy-phenyl)-(5-pyridin-3-yl-1H-pyrrolo[2,3-b]pyridin-3-yl)-methanone]
≤ 10 µM: FGFR1 | B-Raf V600E | Flt1 | Kit | MAP4K4 | Fms

CCCS(=O)(=O)Nc1cccc(C(=O)c2c[nH]c3ncccc23)c1F [Compound P-1056, propane-1-sulfonic acid [2-fluoro-3-(1H-1-pyrrolo[2,3-b]pyridine-3-carbonyl)-phenyl]-amide]
≤ 10 µM: B-Raf V600E | c-Raf-1 | MAP4K4 | B-Raf

CCCS(=O)(=O)Nc1ccc(Cl)c(C(=O)c2c[nH]c3ncccc23)c1F [Compound P-0904, Propane-1-sulfonic acid [4-chloro-2-fluoro-3-(1H-pyrrolo[2,3-b]pyridine-3-carbonyl)-phenyl]-amide]
≤ 10 µM: FGFR1 | B-Raf V600E | c-Raf-1 | MAP4K4 | B-Raf

O=C(c1c(F)ccc(NS(=O)(=O)c2ccc(Cl)cc2)c1F)c1c[nH]c2ncccc12 [Compound P-0937, 4-Chloro-N-[2,4-difluoro-3-(1H-pyrrolo[2,3-b]pyridine-3-carbonyl)-phenyl]-benzenesulfonamide]
≤ 10 µM: FGFR1 | B-Raf V600E | c-Raf-1 | Kit | MAP4K4 | B-Raf

CS(=O)(=O)Nc1cccc(-c2cnc3[nH]cc(C(=O)c4cc(Cl)cc(Cl)c4)c3c2)c1 [Compound P-1429, N-{3-[3-(3,5-Dichloro-benzoyl)-1H-pyrrolo[2,3-b]pyridin-5-yl]-phenyl}-methanesulfonamide]
not listed: Src | c-Raf-1 | Jnk1
≤ 10 µM: all other assays above
